Source: patent US5612341A, “Brominated hexahydroxybiphenyl derivatives” (Biotech Research Laboratories, priority 1995, dated 1997)
Converted amounts (≈) assume the structure as drawn. Read-outs that look alike come from different tables or passages of the source.

Tests used:
HIV-1 (IIIB isolate) [1] = settings: parent compound, comparable to that of DDB; cited from earlier work
HIV-1 (IIIB isolate) [2] = test: microbe, parasite or virus in culture; type: cell-based; settings: for therapeutic index (TI) / Therapeutic Index: 5760 min
Protocol: (§1) The H9 T cell line was maintained in continuous culture with complete medium (RPMI and 10% fetal calf serum) at 5% CO2 and 37° C. and was used in experiments only when in log phase of growth. The cells were incubated with HIV-1 (IIIB isolate, TCID50 10^4 IU/mL, at a multiplicity of infection of 0.1-0.01 IU/cell) for 1 hour at 37° C. and 5% CO2. The cells then were washed thoroughly to remove unabsorbed virions and resuspended at 4×10^5 cells/mL in complete medium. Aliquots (1 mL) were placed in wells of 24-well culture plates containing an equal volume of test compound (diluted in the culture medium). After a four day incubation at 37° C., cell density of uninfected cultures was determined by counting cells in a Coulter counter to assess toxicity of the test compound. A p24 antigen ELISA assay was used to determine the level of virus released in the medium of the HIV-infected cultures. The p24 antigen assay uses an HIV-1 anti-p24 specific monoclonal antibody as the capture antibody coated on 96 well plates. Following a sample incubation period, rabbit serum containing antibodies for HIV-1 p24 is used to tag any p24 "captured" onto the microtiter well surface. […] The cut-off for the p24 ELISA assay is 12.5 pg/mL. P24 in the culture medium was quantitated against a standard curve containing known amounts of p24. The effective (EC50) and inhibitory concentrations (for anti-HIV activity and cytotoxicity, respectively) were determined.

H9 T cell line = test: Toxicity to uninfected H9 cells (cell count); type: cell-based
Protocol: as §1

[3] = target: T1, HIV reverse transcriptase associated RNase H (HIV-1 M:B_HXB2R, UniProt P04585); test: HIV reverse transcriptase associated RNase H activity; type: biochemical
T1 construct: cut from Gag-Pol polyprotein

[4] = system: chronically HIV-1 infected promonocytic cell line, U1; test: Virus expression in chronically HIV-1 infected promonocytic U1 cells (p24 ELISA); type: cell-based; settings: for induction of virus expression / alteration in the level of virus expression: 72 hours; for induction of virus expression: cultured alone; for alteration in the level of virus expression: in presence of PMA
Protocol: Therefore, compounds 4 and 5 were separately added for 72 hours to the chronically HIV-1 infected T cell line, ACH-2, and to the chronically HIV-1 infected promonocytic cell line, U1.
(§2) HIV-1 chronically infected T cell line, ACH-2, ^15 and HIV-1 chronically infected promonocytic cell line, U1 ^16 were continuously maintained in RPMI1640 with 10% fetal calf serum (FCS). For experiments, the cell lines were only used in log-phase of growth. Cells (1×10^6 cells/well) and either various concentrations of 4,5, AZT or media alone were added to 24-well plates in the presence or absence of PMA (10^-8 M). After 72 hours at 37° C. and 5% CO2, an aliquot of the cell-free supernatants was collected and analyzed for p24 antigen by ELISA.

[5] = system: chronically HIV-1 infected T cell line, ACH-2; test: Virus expression in chronically HIV-1 infected T cell line ACH-2 (p24 ELISA); type: cell-based; settings: 72 hours; for induction of virus expression: cultured alone; for alteration in the level of virus expression: in presence of PMA
Protocol: Data obtained by using chronically HIV-1 infected cell lines that are cultured with a test drug can give a sense of how these compounds may function in vivo if given to a latently HIV- infected individual. Therefore, compounds 4 and 5 were separately added for 72 hours to the chronically HIV-1 infected T cell line, ACH-2, and to the chronically HIV-1 infected promonocytic cell line, U1.
as §2

[6] = target: T2, HIV-1 reverse transcriptase (Human immunodeficiency virus type 1 group M subtype B, UniProt P04585); test: HIV-1 reverse transcriptase, RNA-dependent DNA polymerase associated activity; type: biochemical; set-up: HIV-1 reverse transcriptase was purified; made in house; host or cells: Escherichia coli JM 109 containing pKRT 2 (plasmid provided by W. C. Summers, Yale University); settings: for HIV-1 reverse transcriptase inhibitory activity: template-primer dependent, result in words; for IC50: mean ± standard deviation of three
Protocol: (§3) HIV-1 reverse transcriptase was purified using Escherichia coli JM 109 containing pKRT 2 kindly provided by W. C. Summers (Yale University).
(§4) Enzyme Assay. All reactions were developed in a total volume of 50 μl containing 50 mMTris HCl pH 7.8, 2 mM MgCl2, 100 μg/mL nuclease-free BSA, 1 mM dithiothreitol, 0.5 O.D.260 unit/mL of template-primer, and 330 nM of [^3 H]dNTP according to Cheng et al.

[7] = target: T2, HIV-1 reverse transcriptase; test: HIV-1 reverse transcriptase, DNA-dependent DNA polymerase associated activity; type: biochemical; set-up: HIV-1 reverse transcriptase was purified; made in house; host or cells: Escherichia coli JM 109 containing pKRT 2 (plasmid provided by W. C. Summers, Yale University); settings: for inhibitory effect against RT-associated DNA polymerase activity: under certain conditions
Protocol: as §3, §4

[8] = Human immunodeficiency virus 1, H9, text, acutely infected H9 cells, read-out: EC50 (anti-HIV activity)
[9] = Human immunodeficiency virus 1, Lymphocyte, Table I, acutely infected H9 lymphocytes, read-out: EC50
[10] = Human immunodeficiency virus 1, Lymphocyte, Table IA, acutely infected H9 lymphocytes, read-out: EC50
[11] = Homo sapiens, H9, Table I, cytotoxicity, uninfected H9 cells, read-out: IC50
[12] = Poly(rA)-poly(dT) as substrate, or Mg^+2 as divalent cation
[13] = Poly(rG)-poly(dC) as substrate, Mn^+2 (0.4 mM)
[14] = template-primer poly(rA)-olig(dT)10
[15] = template-primer poly(rC)-olig(dG)12-18
[16] = Poly(dA)-olig(dT) as template primer
[17] = Table II, template-primer printed poly(rA)-olig(dT)^10, mean ± standard deviation of three
[18] = T-cell, Table IA, concentration that causes a 50% reduction in total cell number, read-out: IC50
[19] = Human immunodeficiency virus 1, IIIB, Lymphocyte, Table IA, acutely infected H9 lymphocytes, read-out: EC50

Row | Compound | therapeutic index (TI) (HIV-1 (IIIB isolate) [2]) | EC50 (HIV-1 (IIIB isolate) [2]; [8]) | EC50 (HIV-1 (IIIB isolate) [2]; [9]) | EC50 (HIV-1 (IIIB isolate) [2]; [10]) | Therapeutic Index (HIV-1 (IIIB isolate) [2]; Table I, IC50/EC50) | Therapeutic Index (HIV-1 (IIIB isolate) [2]; Table IA, ratio IC50/EC50) | IC50 (H9 T cell line; [11]) | inhibition of HIV RT associated RNase H activity [3, 12] | inhibition of HIV RT associated RNase H activity [3, 13] | inhibition of HIV RT associated RNase H activity ([3]; under certain conditions) | induction of virus expression [4] | alteration in the level of virus expression [4] | p24 ([4]; +Media, 0.0064 μg/mL) | p24 ([4]; +Media, 0.032 μg/mL) | p24 ([4]; +Media, 0.16 μg/mL) | p24 ([4]; +Media, 0.8 μg/mL) | p24 ([4]; +Media, 4 μg/mL) | p24 ([4]; +Media, 20 μg/mL) | p24 ([4]; +PMA, 0.0064 μg/mL) | IC50 (H9 T cell line; [18]) | further results
1 | COc1c(OCc2ccccc2)c(OCc2ccccc2)cc(CO)c1-c1c(CO)cc(OCc2ccccc2)c(OCc2ccccc2)c1OC [Compound 2, 4,4',5,5'-tetrakis(benzyloxy)-6,6'-dimethoxy-2,2'-dihydroxymethyl biphenyl] |  |  |  |  |  |  |  |  |  |  |  |  |  |  |  |  |  |  |  |  | anti-HIV activity (HIV-1 (IIIB isolate) [1]): does possess anti-HIV activity
2 | COC(=O)c1cc(OC)c2c(c1-c1c3c(c(OC)c(Br)c1C(=O)OC)OCO3)OCO2 [Compound 4, 3-Bromo-4,4'-dimethoxy-5,6,5',6'-bimethylenedioxy-2,2'-dimethoxycarbonyl biphenyl] | 190 | 0.52 µg/mL (≈ 1.05 µM) | 0.52 µg/mL (≈ 1.05 µM) | 0.52 µg/mL (≈ 1.05 µM) | > 190 | 190 | > 100 µg/mL | no inhibition | almost equal potency | Potent inhibitory effects | no increase in the induction of virus expression | no alteration in the level of virus expression | 7 pg/mL | 10 pg/mL | 12 pg/mL | 11 pg/mL | 11 pg/mL | 22 pg/mL | 8,314 pg/mL |  | IC50 (H9 T cell line; T-cell, Table IA, concentration that causes a 50% reduction in total cell number): 100 µg/mL (≈ 201 µM); p24 ([4]; +PMA, 0.032 μg/mL): 7,200 pg/mL; p24 ([4]; +PMA, 0.16 μg/mL): 7,616 pg/mL; p24 ([4]; +PMA, 0.8 μg/mL): 8,774 pg/mL; p24 ([4]; +PMA, 4 μg/mL): 13,376 pg/mL; p24 ([4]; +PMA, 20 μg/mL): 10,746 pg/mL; induction of virus expression [5]: no increase in the induction of virus expression; alteration in the level of virus expression [5]: no alteration in the level of virus expression; HIV-1 reverse transcriptase inhibitory activity [6]: template-primer HIV-1 reverse transcriptase inhibitory activity; IC50 [6, 14]: 4500 ± 1000 nM; IC50 [6, 15]: 2200 ± 600 nM; IC50 [7, 16]: 56 nM; IC50 [7, 17]: 56 ± 3 nM; inhibitory effect against RT-associated DNA polymerase activity [7]: Potent inhibitory effects
3 | COC(=O)c1c(Br)c(OC)c2c(c1-c1c3c(c(OC)c(Br)c1C(=O)OC)OCO3)OCO2 [Compound 5, 3,3'-Dibromo-4,4'-dimethoxy-5,6,5'6'-bimethylenedioxy-2,2'-dimethoxycarbonyl biphenyl] | > 480 | 0.23 µg/mL (≈ 0.399 µM) | 0.23 µg/mL (≈ 0.399 µM) | 0.23 µg/mL (≈ 0.399 µM) | > 480 | > 480 | > 100 µg/mL | no inhibition | almost equal potency | Potent inhibitory effects | no increase in the induction of virus expression | no alteration in the level of virus expression | 17 pg/mL | 15 pg/mL | 13 pg/mL | 14 pg/mL | 16 pg/mL | 15 pg/mL | 7,590 pg/mL | > 100 µg/mL | p24 ([4]; +PMA, 0.032 μg/mL): 8,320 pg/mL; p24 ([4]; +PMA, 0.16 μg/mL): 9,850 pg/mL; p24 ([4]; +PMA, 0.8 μg/mL): 11,482 pg/mL; p24 ([4]; +PMA, 4 μg/mL): 10,598 pg/mL; p24 ([4]; +PMA, 20 μg/mL): 10,131 pg/mL; induction of virus expression [5]: no increase in the induction of virus expression; alteration in the level of virus expression [5]: no alteration in the level of virus expression; HIV-1 reverse transcriptase inhibitory activity [6]: template-primer HIV-1 reverse transcriptase inhibitory activity; IC50 [6, 14]: 1900 ± 900 nM; IC50 [6, 15]: 11000 ± 500 nM; IC50 [7, 16]: 48 nM; IC50 [7, 17]: 48 ± 4 nM; inhibitory effect against RT-associated DNA polymerase activity [7]: Potent inhibitory effects
4 | COC(=O)c1cc(-c2cc(C(=O)OC)c3c(c2OC)OCO3)c(OC)c2c1OCO2 [Compound 117, 2,2'-Dimethoxy-3,4,3'4'-bismethylenedioxy-5,5'-dimethoxycarbonyl biphenyl] |  |  |  |  |  |  |  |  |  |  |  |  |  |  |  |  |  |  |  | 1.8 µg/mL (≈ 4.3 µM) | EC50 (HIV-1 (IIIB isolate) [2]; Table IA, acutely infected H9 lymphocytes): no inhibition
5 | COC(=O)c1c(Br)c2c(c(OC)c1-c1c(OC)c3c(c(Br)c1C(=O)OC)OCO3)OCO2 [Compound 118, 3,3'-Dibromo-6,6'-dimethoxy-4,5,4,5'-bimethylenedioxy-2,2'-dimethoxycarbonyl biphenyl] |  |  |  |  |  | > 1.1 |  |  |  |  |  |  |  |  |  |  |  |  |  | > 100 µg/mL | EC50 (HIV-1 (IIIB isolate) [2]; [19]): 90 µg/mL (≈ 156 µM)
6 | COC(=O)c1c(Br)c2c(c(OC)c1-c1c3c(c(OC)c(Br)c1C(=O)OC)OCO3)OCO2 [Compound 119, 3,3'-Dibromo-4,6'-dimethoxy-5,6,4'5'-bimethylenedioxy-2,2'-dimethoxycarbonyl biphenyl] |  |  |  |  |  | > 48 |  |  |  |  |  |  |  |  |  |  |  |  |  | > 100 µg/mL | EC50 (HIV-1 (IIIB isolate) [2]; [19]): 2.1 µg/mL (≈ 3.64 µM)
